The values that follow come from patent publication US10100077B2, “6-aryl-9-glycosylpurines and use thereof” (UNIVERZITA PALACKEHO V OLOMOUCI, priority 2014, dated 2018).

A word on the IC50: it is the concentration needed to halve the response being measured. Usually GI50 stands for the concentration giving 50% growth inhibition.

Data set [1] concerns skin fibroblasts BJ and keratinocytes HaCaT. As to the kind of experiment: SRB in vitro toxicity test. In kind it is cell-based. As to conditions: Homo sapiens, 72 hour treatment, maximal concentration 50 microM. Summed up: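 BJ fibroblasts and HaCaT keratinocytes were exposed for 72 h to sixfold-diluted compound (maximum 50 μM), with DMSO as vehicle. Cells were TCA-fixed and stained with SRB, and absorbance was read at 564 nm. IC50 was calculated from dose-response curves.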

Data set [2] can be described thus: Calcein AM cytotoxicity assay, K562. The format is cell-based, human. As to conditions: human, K562 erythroleukemia cells. Summed up: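 K562, MCF-7 and NIH3T3 cells (10^4/well) in DMEM with 10% FBS were preincubated for 24 hrs, then given six 4-fold dilutions, usually from 166.7 μM, in duplicate for 72 hrs at 37° C. Viability was read by Calcein AM fluorescence after 1 hour, with GI50 from survival relative to control.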

`COc1cccc(CNc2ncnc3c2ncn3[C@@H]2O[C@H](CO)[C@@H](O)[C@@H]2O)c1` [6-(3-methoxybenzylamino)-9-β-D-arabinofuranosylpurine] returned an IC50 in data set [1] of over 50 µM. For the same compound, the GI50 at 72 h in data set [2] is over 100 µM.
